Assay results taken from ChEMBL document CHEMBL4715932, “Positional Isomers of Biphenyl Antimicrobial Peptidomimetic Amphiphiles” (ACS Med Chem Lett, 2021).

Experiments:
Staphylococcus aureus [1] = test: Antibacterial activity against Staphylococcus aureus ATCC 29213 assessed as inhibition of growth visually by CLSI method; format: functional
Staphylococcus aureus [2] = test: Antibacterial activity against methicillin-resistant Staphylococcus aureus NCTC 10442 assessed as inhibition of growth visually by CLSI method; format: functional
Staphylococcus aureus [3] = test: Antibacterial activity against vancomycin intermediate susceptibility Staphylococcus aureus Mu50 assessed as inhibition of growth visually by CLSI method; format: functional
Enterococcus faecalis [4] = test: Antibacterial activity against Enterococcus faecalis ATCC 29212 assessed as inhibition of growth visually by CLSI method; format: functional
Enterococcus faecalis [5] = test: Antibacterial activity against vancomycin-resistant Enterococcus faecalis ATCC 51299 assessed as inhibition of growth visually by CLSI method; format: functional
Streptococcus pneumoniae = test: Antibacterial activity against Streptococcus pneumoniae ATCC 49619 assessed as inhibition of growth visually by CLSI method; format: functional
Escherichia coli [6] = test: Antibacterial activity against Escherichia coli ATCC 10418 assessed as inhibition of growth visually by CLSI method; format: functional
Clostridioides difficile [7] = test: Antibacterial activity against Clostridioides difficile ATCC 700057 assessed as inhibition of growth visually preincubated for 2 to 4 hrs measured after 48 hrs by CLSI method; format: functional; details: time hrs <=52
Clostridioides difficile [8] = test: Antibacterial activity against Clostridioides difficile NSW 132 (RT027) assessed as inhibition of growth visually preincubated for 2 to 4 hrs measured after 48 hrs by CLSI method; format: functional; details: time hrs <=52
Staphylococcus aureus [9] = test: Antimicrobial activity against methicillin resistant Staphylococcus aureus ATCC 43300 assessed as growth inhibition incubated for 18 hrs; format: functional
Pseudomonas aeruginosa = test: Antimicrobial activity against Pseudomonas aeruginosa ATCC 27853 assessed as growth inhibition incubated for 18 hrs; format: functional
Klebsiella pneumoniae = test: Antimicrobial activity against multidrug-resistant Klebsiella pneumoniae ATCC 700603 assessed as growth inhibition incubated for 18 hrs; format: functional
Acinetobacter baumannii = test: Antimicrobial activity against Acinetobacter baumannii ATCC 19606 assessed as growth inhibition incubated for 18 hrs; format: functional
Escherichia coli [10] = test: Antimicrobial activity against Escherichia coli ATCC 25922 assessed as growth inhibition incubated for 18 hrs; format: functional
Candida albicans = test: Antifungal activity against Candida albicans ATCC 90028 assessed as growth inhibition incubated for 36 hrs; format: functional; details: 28A ATCC 90028
Cryptococcus neoformans = test: Antifungal activity against Cryptococcus neoformans H99 ATCC 208821 assessed as growth inhibition incubated for 36 hrs; format: functional; details: var. grubii H99 ATCC 208821
[11] = Cytotoxicity against human HEK-293 cells incubated for 23 hrs by CO-ADD method; format: cell-based, HEK293
[12] = Hemolytic activity in human RBC assessed as hemolysis incubated for 1 hr by CO-ADD method; format: ADME, cell-based, Erythrocyte; details: red blood cells (erythrocytes)
[13] = Hemolytic activity in sheep RBC assessed as hemolysis at 5 microg/ml incubated for 2 hrs by CO-ADD method; format: ADME, cell-based, Ovis aries, Erythrocyte; details: red blood cells (erythrocytes), at 5 µg/mL, read-out: Activity
[14] = Hemolytic activity in sheep RBC assessed as hemolysis at 50 microg/ml incubated for 2 hrs; format: ADME, cell-based, Ovis aries, Erythrocyte; details: red blood cells (erythrocytes), at 50 µg/mL, read-out: Activity
[15] = Cytotoxicity against human HEK-293 cells assessed as maximal inhibition at <= 32 ug/ml incubated for 23 hrs by CO-ADD method; format: cell-based, HEK293; details: dose <=32 µg/ml, read-out: Imax
[16] = Hemolytic activity in human RBC assessed as maximal hemolysis at <= 32 ug/ml incubated for 1 hr by CO-ADD method; format: cell-based, Erythrocyte; details: red blood cells (erythrocytes), dose <=32 µg/ml, read-out: Activity

Structure (SMILES): CC(C)CCOc1cccc(-c2cccc(OCc3cn(C[C@@H](CCCCN)NC(=O)[C@@H](CCCNC(=N)N)n4cc(CC5CCCCC5)nn4)nn3)c2)c1.Cl.Cl
- MIC (Staphylococcus aureus [1]): 4 µg/mL
- MIC (Staphylococcus aureus [2]): 4 µg/mL
- MIC (Staphylococcus aureus [3]): 4 µg/mL
- MIC (Enterococcus faecalis [4]): 4 µg/mL
- MIC (Enterococcus faecalis [5]): 8 µg/mL
- MIC (Streptococcus pneumoniae): 2 µg/mL
- MIC (Escherichia coli [6]): 4 µg/mL
- MIC (Clostridioides difficile [7]): 16 µg/mL
- MIC (Clostridioides difficile [8]): 16 µg/mL
- MIC80 (Staphylococcus aureus [9]): ≤ 0.25 µg/mL
- MIC80 (Pseudomonas aeruginosa): 32 µg/mL
- MIC80 (Klebsiella pneumoniae): > 32 µg/mL
- MIC80 (Acinetobacter baumannii): 32 µg/mL
- MIC80 (Escherichia coli [10]): 32 µg/mL
- MIC80 (Candida albicans): 8 µg/mL
- MIC80 (Cryptococcus neoformans): > 32 µg/mL
- CC50 at 23 h [11]: 28.1 µg/mL
- HC50 at 1 h [12]: > 32 µg/mL
- hemolysis at 2 h, 5 microg/ml [13]: 3.7%
- hemolysis at 2 h, 50 microg/ml [14]: 76.7%
- Emax at 23 h [15]: 55%
- hemolysis at 1 h [16]: 94%
